# Laboratory results taken from patent US20160355483A1, “COMPOUND BINDING TO PPARG BUT NOT ACTING AS PROMOTER AND PHARMACEUTICAL COMPOSITION FOR TREATING PPARG-RELATED DISEASES CONTAINING SAME AS ACTIVE INGREDIENT” (Hyundai Pharm Co., Ltd., priority 2014, published 2016).
# “Also recorded” adds a separate entry of the source.
# What was measured:
# CYP 2C9 = target: T1, CYP 2C9 (Homo sapiens, UniProt P11712); test: CYP (cytochrome P450)-suppressing effect, Invitrogen Vivid kit; type: in vitro ADME
# T1 construct: purchased Invitrogen P2861
# Protocol: (§1) To evaluate the CYP (cytochrome P450)-suppressing activity of the compounds prepared in the examples of the invention, the following experiment was performed.
# (§2) The analysis of CYP1A2, 2C19, and 3A4 suppressing activity was performed by using a BD GENTEST (459100, 459400, and 459500) kit, and the analysis of CYP 2C9- and 2D6-suppressing activity was performed by using an Invitrogen (P2861 and P2862) kit.
# (§3) When the Invitrogen kit was used, the compounds of the present invention were diluted in Vivid CYP450 reaction buffer (1×) at the final concentration of 2.5×. The P450 BACULOSOMES sample and Regeneration system (100×) were diluted in Vivid CYP450 reaction buffer (1×) at different proper concentrations. 80 μL of the compound of the invention (2.5×) and […] of the diluted P450 BACULOSOMES sample mixture were mixed in a U-bottom 96-well plate, followed by pre-incubation for 10 minutes. Vivid CYP450 Substrate and NADP+ (100×) were diluted in Vivid CYP450 reaction buffer (1×) at a desired concentration, respectively, according to their corresponding types of CYP450 and substrates. 20 μL of Substrate-NADP+ mix was loaded in the plate when the pre-incubation had been completed, followed by reaction for 1 hour. Upon completion of the reaction, the reaction mixture was transferred in a white plate and fluorescent wavelength was measured with a microplate reader (2C9 excitation 415 nm, emission 460 nm, 2D6 excitation 400 nm, emission 502 nm).
# (§4) The test results were calculated by the following formula:
# (§5) (1−(fluorescence value of the test material/fluorescence value of the vehicle))×100%.
# CYP 2D6 = target: T2, CYP 2D6 (Homo sapiens, UniProt P10635); test: as above; type: in vitro ADME
# T2 construct: purchased Invitrogen P2862
# Protocol: as §1, §2, §3, §4, §5
# CYP 2C19 = target: T3, CYP 2C19 (Homo sapiens, UniProt P33261); test: CYP (cytochrome P450)-suppressing effect, BD GENTEST kit; type: in vitro ADME
# T3 construct: purchased BD GENTEST 459400
# Protocol: as §1, §2
# (§6) When the BD GENTEST kit was used, the compounds of the present invention were diluted in acetonitrile at the final concentration of 50×. The NADPH-Cofactor mix was prepared by diluting the Cofactor, G6PDH, and control protein provided by the kit in DW according to the instructed concentration. 4 μL of the compound of the example (50×) was mixed with 96 μL of NADPH-Cofactor mix in a 96-well plate, followed by pre-incubation in a 37° C. incubator for 10 minutes.
# (§7) The enzyme/substrate mixture was diluted in the buffer (0.5 M potassium phosphate, pH 7.4) provided by the kit according to the instructed concentration. Each CYP450 enzyme substrate was diluted in DW at a desired concentration respectively according to the corresponding types of CYP450. 100 μL of the enzyme/substrate mixture was loaded in the plate when the pre-incubation had been completed, followed by reaction in a 37° C. incubator for 15 minutes (1A2) and 30 minutes (3A4 and 2C19). Upon completion of the reaction, the mixture was transferred to a white plate, and the fluorescent wavelength was measured with a microplate reader (1A2, 2C19 excitation 410 nm, emission 460 nm; 3A4, excitation 409 nm, emission 530 nm).
# as §4, §5
# CYP1A2 = target: T4, CYP1A2 (Homo sapiens, UniProt P05177); test: as above; type: in vitro ADME
# T4 construct: purchased BD GENTEST 459100
# T4 sequence (P05177 1-516): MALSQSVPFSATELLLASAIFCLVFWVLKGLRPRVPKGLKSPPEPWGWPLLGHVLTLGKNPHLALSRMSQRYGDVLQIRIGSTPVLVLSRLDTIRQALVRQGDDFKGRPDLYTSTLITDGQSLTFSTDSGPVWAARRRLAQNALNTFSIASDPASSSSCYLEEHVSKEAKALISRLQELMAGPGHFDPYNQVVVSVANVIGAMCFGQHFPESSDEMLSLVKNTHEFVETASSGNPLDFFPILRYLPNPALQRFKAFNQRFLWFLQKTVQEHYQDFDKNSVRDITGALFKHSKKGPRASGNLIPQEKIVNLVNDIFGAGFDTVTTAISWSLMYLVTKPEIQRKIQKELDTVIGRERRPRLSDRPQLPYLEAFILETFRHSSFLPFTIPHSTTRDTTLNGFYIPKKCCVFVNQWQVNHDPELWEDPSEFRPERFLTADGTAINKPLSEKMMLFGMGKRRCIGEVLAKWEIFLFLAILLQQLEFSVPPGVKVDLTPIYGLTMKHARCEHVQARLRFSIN
# Protocol: as §1, §2, §6, §7, §4, §5
# CYP 3A4 = target: T5, CYP 3A4 (Homo sapiens, UniProt P08684); test: as above; type: in vitro ADME
# T5 construct: purchased BD GENTEST 459500
# Protocol: as §1, §2, §6, §7, §4, §5
# [1] = target: T6, PPARG (peroxisome proliferator activated receptor-gamma), GST-PPARG-LBD (Homo sapiens, UniProt P37231); test: LanthaScreen TR-FRET PPARG Competitive Binding Assay; design: key: “+” indicates the degree of the binding activity, and as the number of “+” increases, the binding activity is stronger; ++: “+” indicates the degree of the binding activity, and as the number of “+” increases, the binding activity is stronger; +++: “+” indicates the degree of the binding activity, and as the number of “+” increases, the binding activity is stronger; ++++: “+” indicates the degree of the binding activity, and as the number of “+” increases, the binding activity is stronger; settings: degree of binding activity
# T6 construct: 15 μL of 5 nM GST-PPARG-LBD and 5 nM Tb-GST-antibody were added; purchased Invitrogen PV4894
# T6 sequence (P37231 238-503 limits assumed): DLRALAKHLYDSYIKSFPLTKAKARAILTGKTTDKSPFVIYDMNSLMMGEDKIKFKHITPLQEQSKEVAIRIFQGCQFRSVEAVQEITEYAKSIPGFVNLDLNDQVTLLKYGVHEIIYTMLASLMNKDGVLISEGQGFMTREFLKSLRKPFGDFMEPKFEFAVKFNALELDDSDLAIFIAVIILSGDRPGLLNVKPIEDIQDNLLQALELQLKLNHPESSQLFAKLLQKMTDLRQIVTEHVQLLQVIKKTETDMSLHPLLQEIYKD
# Procedure, shortened: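 Ratio of 518 nm to 488 nm time-resolved emission after a 1 h room-temperature incubation, in competition format with GST-PPARG ligand-binding domain. Values are expressed as 100% minus compound-to-vehicle ratio and related to rosiglitazone binding.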
# [2] = target: T7, HERG (Human Ether-a-go-go-Related Gene) channel (Homo sapiens, UniProt Q12809); test: Evaluation of cardiotoxicity, patch-clamp on HEK293 cells expressing HERG channel; type: cell-based; settings: HERG peak tail current
# T7 construct: expressed in transfected cells; host or cells: HEK293
# Protocol: HEK293 cells expressing HERG (Human Ether-a-go-go-Related Gene) channel safely were cultured in MEM (Minimum Essential Medium) supplemented with 10% fetal bovine serum (FBS), 1 mM sodium pyruvate, 0.1 mM non-essential amino acid solution, 100 units/ml penicillin-streptomycin, 100 μg/ml streptomycin sulfate and 100 μg/ml zeocin under the condition of air:CO2=95:5. When the cells were grown to 60-80% confluency, the cells were loaded in the medium supplemented with 0.25% trypsin and 0.02% EDTA (ethylenediaminetertraacetic acid) for 3 minutes. The cells were then washed with a fresh medium and then dispensed on a new plastic culture dish. For the electrophysiological record, the cells were seeded on a glass cover slip of 5 mm in diameter, followed by incubation in a 24-well plate for 5-24 hours. Then, the cells were transferred into the recording chamber.
# The current value of all the cells was measured by the conventional patch-clamp technique or Port-a-Patch (Nanion, Germany) semiautomatic technique. The pH of the external bath solution containing 136 mM NaCl, 5.4 mM KCl, 1.8 mM CaCl2, 1 mM MgCl2, 10 mM glucose, and 10 mM HEPES (4-(2-hydroxyethyl)-1-piperazineethanesulfonic acid) was adjusted to 7.4 using NaOH. The pH of the intracellular pipette solution containing 130 mM KCl, 1 mM MgCl2, 10 mM EGTA (ethylene glycol tetraacetic acid), 5 mM Mg-ATP, and mM HEPES was adjusted to 7.2 using KOH.
# In the conventional patch-clamp technique, the patch pipette was pulled by a PP-83 pipette puller (Narishige, Tokyo, Japan), so that it had 2-4 MΩ of resistance in the external bath solution. The ionic current was recorded by using EPC7 pulse amplifier (HEKA electronic, Germany). The voltage-clamp amplification was regulated using the pClamp computer program (Axon Instruments, USA), and the obtained data were analyzed. During the recording, the solution above was continually spread on HEK293 cells in the chamber. For the recording, the Port-a-Patch (Nanion, Germany) semiautomatic patch system was used, and the amplifier used herein was EPC10.
# The membrane potential was maintained at −80 mV, which was changed to +20 mV for 4 seconds, then changed to −50 mV for 6 seconds and then maintained again at −80 mV. The changes were made every 25 seconds.
# To obtain the concentration-reaction curve in the presence of the drug, dose-dependent inhibition was entered into the Hill formula represented by mathematical formula 1 below.
# In mathematical formula 1, Idrug indicates the peak tail current in the presence of a drug, Icontrol indicates the maximum peak tail current in the absence of a drug, D indicates the concentration of a drug, h indicates Hill constant, and IC50 indicates the concentration when the half-maximum peak tail current was suppressed.
# [3] = tested on: CYP isozymes 1A2, 2C9, 2C19, and 2D6; test: CYP suppression compared with comparative examples (Table 3); type: in vitro ADME; settings: result in words
# Protocol: as §1, §2, §3, §6, §7, §4, §5
# bone cells = settings: cell culture test; cited from earlier work
# T7 sequence (Q12809 whole entry): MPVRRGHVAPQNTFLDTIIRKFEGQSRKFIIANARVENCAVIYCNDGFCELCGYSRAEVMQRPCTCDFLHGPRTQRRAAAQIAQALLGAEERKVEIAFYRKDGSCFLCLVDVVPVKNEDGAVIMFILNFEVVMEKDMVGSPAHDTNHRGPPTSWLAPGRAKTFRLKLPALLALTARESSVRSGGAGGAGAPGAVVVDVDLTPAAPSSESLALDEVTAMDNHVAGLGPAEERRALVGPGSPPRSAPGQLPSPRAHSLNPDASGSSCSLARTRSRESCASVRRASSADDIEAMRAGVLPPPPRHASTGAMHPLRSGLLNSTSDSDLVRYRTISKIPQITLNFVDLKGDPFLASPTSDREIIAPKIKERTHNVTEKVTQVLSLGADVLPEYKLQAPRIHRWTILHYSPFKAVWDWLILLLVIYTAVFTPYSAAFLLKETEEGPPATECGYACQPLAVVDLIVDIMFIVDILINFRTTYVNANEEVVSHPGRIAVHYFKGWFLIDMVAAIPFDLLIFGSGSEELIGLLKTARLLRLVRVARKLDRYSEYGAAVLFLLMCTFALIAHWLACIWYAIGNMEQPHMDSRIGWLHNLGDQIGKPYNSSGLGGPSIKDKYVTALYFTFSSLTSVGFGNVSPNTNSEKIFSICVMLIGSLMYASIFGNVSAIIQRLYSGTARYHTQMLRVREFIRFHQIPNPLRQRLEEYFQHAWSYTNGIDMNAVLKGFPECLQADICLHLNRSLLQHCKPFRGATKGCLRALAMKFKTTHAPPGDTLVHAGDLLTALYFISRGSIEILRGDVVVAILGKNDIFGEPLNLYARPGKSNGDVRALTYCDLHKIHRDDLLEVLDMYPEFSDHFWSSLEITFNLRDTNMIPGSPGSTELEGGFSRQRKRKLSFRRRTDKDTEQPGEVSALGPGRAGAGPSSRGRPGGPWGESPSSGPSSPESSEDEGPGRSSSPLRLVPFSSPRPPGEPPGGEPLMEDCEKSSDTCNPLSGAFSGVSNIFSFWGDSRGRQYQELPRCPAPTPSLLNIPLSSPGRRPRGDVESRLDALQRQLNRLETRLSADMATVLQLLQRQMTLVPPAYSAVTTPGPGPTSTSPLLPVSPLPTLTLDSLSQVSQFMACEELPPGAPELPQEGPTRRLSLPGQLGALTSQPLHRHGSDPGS
# T5 sequence (P08684 whole entry): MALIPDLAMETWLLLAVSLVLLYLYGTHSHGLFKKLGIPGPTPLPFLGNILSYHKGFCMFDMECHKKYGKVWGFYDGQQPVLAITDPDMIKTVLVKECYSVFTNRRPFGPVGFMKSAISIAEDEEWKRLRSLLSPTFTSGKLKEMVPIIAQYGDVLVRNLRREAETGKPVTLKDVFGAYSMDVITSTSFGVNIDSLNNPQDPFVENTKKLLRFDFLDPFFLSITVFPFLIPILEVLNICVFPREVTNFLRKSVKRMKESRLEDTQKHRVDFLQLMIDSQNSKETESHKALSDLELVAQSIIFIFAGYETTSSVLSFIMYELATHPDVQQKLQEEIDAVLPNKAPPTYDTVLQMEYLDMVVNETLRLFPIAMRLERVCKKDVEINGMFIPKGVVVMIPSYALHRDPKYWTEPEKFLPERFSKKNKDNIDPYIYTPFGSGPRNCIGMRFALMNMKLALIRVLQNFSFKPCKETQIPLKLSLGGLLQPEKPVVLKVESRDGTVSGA
# T3 sequence (P33261 whole entry): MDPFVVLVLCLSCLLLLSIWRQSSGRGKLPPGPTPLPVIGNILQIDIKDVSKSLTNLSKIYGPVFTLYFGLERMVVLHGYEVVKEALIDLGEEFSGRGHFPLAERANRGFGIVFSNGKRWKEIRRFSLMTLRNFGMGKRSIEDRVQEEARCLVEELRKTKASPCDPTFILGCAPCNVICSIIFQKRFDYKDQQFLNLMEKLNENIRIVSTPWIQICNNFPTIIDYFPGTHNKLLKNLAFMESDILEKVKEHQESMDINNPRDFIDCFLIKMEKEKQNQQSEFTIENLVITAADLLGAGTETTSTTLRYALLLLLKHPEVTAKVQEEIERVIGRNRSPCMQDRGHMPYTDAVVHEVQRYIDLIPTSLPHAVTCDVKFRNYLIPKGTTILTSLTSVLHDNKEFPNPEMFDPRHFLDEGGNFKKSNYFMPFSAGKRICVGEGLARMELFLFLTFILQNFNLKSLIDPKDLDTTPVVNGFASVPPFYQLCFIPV
# T2 sequence (P10635 whole entry): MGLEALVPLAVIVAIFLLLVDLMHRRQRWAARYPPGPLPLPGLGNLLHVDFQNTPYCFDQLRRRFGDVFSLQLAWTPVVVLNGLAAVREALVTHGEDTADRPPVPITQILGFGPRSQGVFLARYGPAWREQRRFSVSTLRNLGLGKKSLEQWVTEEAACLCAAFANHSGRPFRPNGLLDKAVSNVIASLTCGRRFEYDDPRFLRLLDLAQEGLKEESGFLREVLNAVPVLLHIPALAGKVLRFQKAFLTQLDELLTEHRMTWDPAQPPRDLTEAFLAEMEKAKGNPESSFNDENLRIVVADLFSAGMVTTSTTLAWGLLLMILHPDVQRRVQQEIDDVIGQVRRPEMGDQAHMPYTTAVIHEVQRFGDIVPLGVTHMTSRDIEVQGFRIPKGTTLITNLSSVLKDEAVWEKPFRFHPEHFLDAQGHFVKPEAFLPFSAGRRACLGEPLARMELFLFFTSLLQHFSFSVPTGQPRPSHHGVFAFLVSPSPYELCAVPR
# T1 sequence (P11712 whole entry): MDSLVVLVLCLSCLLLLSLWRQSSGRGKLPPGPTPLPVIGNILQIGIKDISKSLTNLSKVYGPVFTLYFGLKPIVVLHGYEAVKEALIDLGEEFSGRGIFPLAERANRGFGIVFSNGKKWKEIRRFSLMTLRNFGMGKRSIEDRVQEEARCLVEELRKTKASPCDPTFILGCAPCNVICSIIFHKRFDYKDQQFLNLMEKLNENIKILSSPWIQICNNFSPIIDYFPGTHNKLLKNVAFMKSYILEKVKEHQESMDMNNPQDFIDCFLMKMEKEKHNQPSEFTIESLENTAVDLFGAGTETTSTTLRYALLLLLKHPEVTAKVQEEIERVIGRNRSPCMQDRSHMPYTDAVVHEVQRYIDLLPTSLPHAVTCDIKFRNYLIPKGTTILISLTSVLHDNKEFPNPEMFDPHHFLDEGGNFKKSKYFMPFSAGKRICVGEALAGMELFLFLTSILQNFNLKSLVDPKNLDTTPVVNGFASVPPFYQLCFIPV
"CYP(10 μL, %) 2C9 (CYP 2C9)","CYP(10 μL, %) 2D6 (CYP 2D6)","CYP(10 μL, %) 2C19 (CYP 2C19)","CYP(10 μL, %) 1A2 (CYP1A2)","CYP(10 μL, %) 3A4 (CYP 3A4)",Binding assay (1 μLM) [1],SMILES,IC50 [2],"suppression of CYP isozymes 1A2, 2C9, 2C19, and 2D6 compared with SR1664 and SR1824 [3]",fat generation in bone cells (bone cells)
55.36%,94.15%,85.71%,100.73%,54.62%,++++,"Cc1ccc([C@H](C)NC(=O)c2ccc3c(c2)CCCN3Cc2ccc(-c3ccccc3C(=O)[O-])cc2)cc1F.[Na+] [Example 56, sodium (S)-4′-((6-((1-(3-fluoro-4-methylphenyl)ethyl)carbamoyl)-3,4-dihydroquinoline-1(2H)-yl)methyl)-[1,1′-biphenyl]-2-carboxylate]",72.6 µM,less than the compounds of the comparative examples; also recorded: less strongly than the compounds of the Comparative Examples,–
–,–,–,–,–,–,Cc1c(C)n(Cc2ccc(-c3ccccc3C(=O)O)cc2)c2ccc(C(=O)N[C@@H](C)c3ccc([N+](=O)[O-])cc3)cc12 [SR1664],–,–,does not induce problems such as fat generation in bone cells
–,–,–,–,–,++,"C[C@H](NC(=O)c1ccc2c(c1)CCCN2Cc1ccccc1-c1ccc(C(=O)O)cc1)c1ccc(C#N)cc1 [Example 157, (S)-2′-((6-((1-(4-cyanophenyl)ethyl)carbamoyl)-3,4-dihydroquinoline-1(2H)-yl)methyl)-[1,1′-biphenyl]-4-carboxylic acid]",42.7 µM,–,–
